The nature of experiment [1]: Hypotensive effects in the anesthetized dog by the intravenous route. The class given is in vivo. The settings on record: average of two animals. How it is done:
In the use of the compounds of the invention to produce hypotensive effects in warm-blooded animals, administration by the injectable route is preferred, preferably the intravenous route.
Thus in the anesthetized dog by the intravenous route the dose to produce hypotension is from about 1 μg/kg. to about 200 μg/kg. and preferably from about 10 μg/kg. to about 100 μg/kg. Using this procedure the following results were obtained:
*Average of two animals.

For experiment [2], the system named is bronchoconstricting effects of a standard dose of acetylcholine. Kind of experiment: Bronchodilation upon aerosol inhalation, method of Rosenthale et al. The class given is in vivo. The note with it: guinea pig, i.v. acetylcholine producing ca. 30% bronchoconstriction. The source says: In using the compounds of the invention to produce bronchodilating effects in warm-blooded animals, they may be administered in a variety of dosage forms: oral, injectable, and aerosol inhalation. Aerosol inhalation is a preferred method because of its rapid onset of action, great potency, and specificity of action. The particular dosage to obtain the bronchodilating effect will vary with the particular compound employed, the particular animal involved, and the degree of bronchodilation desired. In the guinea pig, by aerosol inhalation, the dose to produce bronchodilation is from about 0.15 micrograms to about 25 micrograms, and preferably from about 0.15 to about 15 micrograms. The bronchodilation produced upon aerosol inhalation can be observed by the method of Rosenthale et al., J. Pharmacol. Exp. Ther., 178, 541 (1971). Using this procedure the following results were obtained:
*The dose (i.v. of acetylcholine which produces a ca. 30%

SMILES strings stand for the structures.

This note sets out measurements from patent publication US4207419A, “Prostaglandin derivatives” (American Home Products Corporation, priority 1977, dated 1980).

As for `CC(C)(c1ccccc1)[C@H](O)CC[C@H]1CCC(=O)[C@@H]1CCCCCCC(=O)O` (relative stereo) [dl-2β-[(3R)-3-Hydroxy-4,4-Dimethyl-4-Phenyl-1-Butyl]-5-Oxo-1α-Cyclopentane Heptanoic Acid], the “Δ B.P.” value in experiment [1] (dose 10 μg/kg.) is -14 mm. Hg; in experiment [1] (dose 100 μg/kg.), -26 mm. Hg.

On to `CC(C)(c1ccccc1)[C@H](O)/C=C/[C@H]1CCC(=O)[C@@H]1C/C=C\CCCC(=O)O` (relative stereo) [dl-7-{2β-[(3R)-3-Hydroxy-4,4-Dimethyl-4-Phenyl-trans-1-Butenyl]-5-Oxo-1α-Cyclopentyl}-cis-5-Heptenoic Acid], for which the “Δ B.P.” value in experiment [1] (dose 10 μg/kg.) was -30 mm. Hg.

For `CC(C)(Cc1ccccc1)[C@H](O)/C=C/[C@H]1CCC(=O)[C@@H]1CCCCCCC(=O)O` (relative stereo) [dl-2β-[(3R)-3-Hydroxy-4,4-Dimethyl-5-Phenyl-trans-1-Pentenyl]-5-Oxo-Cyclopentane Heptanoic Acid], the results for the “Percent Inhibition of the bronchoconstricting effects of a standard dose of acetylcholine” value in experiment [2] (dose 0.15 μg), in experiment [2] (dose 1.50 μg) and in experiment [2] (dose 15 μg) were 46%, 66% and 60%, respectively.
